Data on 27 molecules can be found in patent US9902725B2, “Heterocyclic derivatives as RORgamma modulators” (GENFIT, priority 2014, dated 2018).

For orientation: IC50 means the concentration that inhibits the measured activity by half. Higher therefore signals weaker potency.

The target in the experiment is T1, RORγt ligand-binding domain (RORγt-LBD) (Homo sapiens, UniProt P51449).
T1 construct: 20 nM recombinantly expressed RORγ-LBD fused to GST
T1 sequence (P51449 269-508 limits assumed): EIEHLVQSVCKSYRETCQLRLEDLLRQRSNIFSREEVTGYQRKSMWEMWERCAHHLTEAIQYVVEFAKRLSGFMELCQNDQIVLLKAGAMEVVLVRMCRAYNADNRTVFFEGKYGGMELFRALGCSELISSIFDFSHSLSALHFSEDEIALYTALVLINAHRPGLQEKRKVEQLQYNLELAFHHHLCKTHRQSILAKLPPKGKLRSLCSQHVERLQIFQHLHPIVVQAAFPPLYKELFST
In words: Time-resolved FRET (TR-FRET) RORγt coactivator assay. Format: biochemical. The settings on record: GST-RORγ-LBD, biotinylated RIP140 peptide, coactivator displacement. From the text: Time-resolved FRET (TR-FRET) RORγt coactivator assay was used to identify RORγ modulator compounds with ligand-dependent coactivator displacement. The assay uses a d2-labeled anti-GST antibody, synthetic N-terminally biotinylated peptide which is derived from nuclear receptor coactivator protein RIP140, and a RORγt ligand-binding domain (RORγt-LBD) that is tagged with glutathione-S-transferase (GST). The influence of compounds on the RORγ-peptide interaction relies on the binding dependent energy transfer from a donor to an acceptor fluorophore attached to the binding partner of interest. […] For reduction of background from compound fluorescence, TR-FRET method makes use of generic fluorophore labels and time resolved detection.
The assays were done in a final volume of 20 μl in a 384 well plate in a CHAPS buffer (2 mM CHAPS; 1 mM DTT, 2 mM EDTA; 0.1% BSA), containing 20 nM recombinantly expressed RORγ-LBD fused to GST, 30 nM N-terminally biotinylated peptide, 1 nM streptavidin-terbium conjugate and 20 nM d2 labeled-anti-GST. Test compounds were diluted using 10 mM stock solution. The range of the final compound concentrations used in this test was from 0.3 nM to 30 μM (logarithmic scale). DMSO content of the samples was kept at 1%. The assay was equilibrated for 2 hours in the dark at room temperature in 384 well plates (Falcon). The signal was detected by an Ultra384 reader (TECAN). The results were visualized by plotting the ratio between the emitted light at 665 nm and 620 nm. A basal level of RORγ-peptide formation is observed in the absence of added compound. Compounds that promote coactivator displacement induce a concentration-dependent decrease in time-resolved fluorescent signal. Data were collected and analyzed using GraphPad Prism software (GraphPad Software V5.02, San Diego Calif. USA). IC50 in μM and Emax in % were reported for each compound.
For orientation: TR-FRET usually uses a lanthanide donor and a delayed reading to cut background.
`CCOC(=O)CCc1n[nH]c2ccc(CC(=O)NC(c3ccccc3)c3ccccc3N3CCCCC3)cc12` (stereo not drawn) [Cpd. 236, ethyl 3-{5-[({phenyl[2-(piperidin-1-yl)phenyl]methyl}carbamoyl)methyl]-1H-indazol-3-yl}propanoate] returned an IC50 below 1000 nM. `O=C(O)CCc1c[nH]c2ccc(CC(=O)NC(CC3CCOCC3)c3ccccc3N3CCCCC3)cc12` (stereo not drawn) [compound 190, 3-[5-({[2-(oxan-4-yl)-1-[2-(piperidin-1-yl)phenyl]ethyl]carbamoyl}methyl)-1H-indol-3-yl]propanoic acid] gave an IC50 below 1000 nM. Turning to `NC(=O)c1ccc(C(NC(=O)Cc2ccc3[nH]cc(CCC(=O)O)c3c2)c2ccccc2)c(N2CCCC2)c1` (stereo not drawn) [compound 63, 3-{5-[({[4-carbamoyl-2-(pyrrolidin-1-yl)phenyl](phenyl)methyl}carbamoyl)methyl]-1H-indol-3-yl}propanoic acid], the IC50 lay within 1000 to 10000 nM.

`Cc1cc(C(NC(=O)Cc2ccc3[nH]cc(CCC(=O)O)c3c2)c2ccccc2N2CCCCC2)oc1C` (stereo not drawn) [compound 253, 3-[5-({[(4,5-dimethylfuran-2-yl)[2-(piperidin-1-yl)phenyl]methyl]carbamoyl}methyl)-1H-indol-3-yl]propanoic acid] displayed an IC50 below 1000 nM. As for `O=C(O)CCCC(=O)c1c[nH]c2ccc(CC(=O)NC(c3ccccc3)c3ccccc3N3CCCCC3)cc12` (stereo not drawn) [compound 215, 5-oxo-5-{5-[({phenyl[2-(piperidin-1-yl)phenyl]methyl}carbamoyl)methyl]-1H-indol-3-yl}pentanoic acid], the IC50 was below 1000 nM. On to `Cc1cc(Br)ccc1C(NC(=O)Cc1ccc2[nH]cc(CCC(=O)O)c2c1)c1ccccc1` (stereo not drawn) [compound 44, 3-[5-({[(4-bromo-2-methylphenyl)(phenyl)methyl]carbamoyl}methyl)-1H-indol-3-yl]propanoic acid], for which the IC50 is below 1000 nM. Next, `CC(C)(C)OC(=O)CCc1c[nH]c2ccc(CC(=O)NC(c3ccccc3)c3ccccc3N3CCCC(F)(F)C3)cc12` (stereo not drawn) [Cpd. 232, tert-butyl 3-{5-[({[2-(3,3-difluoropiperidin-1-yl)phenyl](phenyl)methyl}carbamoyl)methyl]-1H-indol-3-yl}propanoate]: below 1000 nM. `O=C(O)CCc1c[nH]c2ccc(CC(=O)NC(c3ccccc3)c3ccccc3N3CCCC3)cc12` (stereo not drawn) [compound 79, 3-{5-[({phenyl[2-(pyrrolidin-1-yl)phenyl]methyl}carbamoyl)methyl]-1H-indol-3-yl}propanoic acid] returned an IC50 below 1000 nM. In turn, `CCOC(=O)CCCC(=O)c1c[nH]c2ccc(CC(=O)NC(c3ccccc3)c3ccccc3N3CCCCC3)cc12` (stereo not drawn) [Cpd. 214, ethyl 5-oxo-5-{5-[({phenyl[2-(piperidin-1-yl)phenyl]methyl}carbamoyl)methyl]-1H-indol-3-yl}pentanoate] returned an IC50 of 1000 to 10000 nM. Next, `Cc1ccc(C(NC(=O)Cc2ccc3[nH]cc(CCC(=O)OC(C)(C)C)c3c2)c2ccccc2OC(C)C)o1` (stereo not drawn) [Cpd. 254, tert-butyl 3-[5-({[(5-methylfuran-2-yl)[2-(propan-2-yloxy)phenyl]methyl]carbamoyl}methyl)-1H-indol-3-yl]propanoate]: below 1000 nM.

`Cc1ccc(C(NC(=O)Cc2ccc3[nH]cc(CCC(=O)O)c3c2)c2ccccc2OC(C)C)o1` (stereo not drawn) [compound 255, 3-[5-({[(5-methylfuran-2-yl)[2-(propan-2-yloxy)phenyl]methyl]carbamoyl}methyl)-1H-indol-3-yl]propanoic acid] had an IC50 below 1000 nM. Next, `Cc1cc(F)ccc1C(NC(=O)Cc1ccc2[nH]cc(CCC(=O)OC(C)(C)C)c2c1)c1ccccc1` (stereo not drawn) [Cpd. 45, tert-butyl 3-[5-({[(4-fluoro-2-methylphenyl)(phenyl)methyl]carbamoyl}methyl)-1H-indol-3-yl]propanoate]: 10000 to 30000 nM; `Cc1ccc(C(NC(=O)Cc2ccc3[nH]cc(CCC(=O)O)c3c2)c2ncccn2)c(N2CCCCC2)c1` (stereo not drawn) [compound 132, 3-{5-[({[4-methyl-2-(piperidin-1-yl)phenyl](pyrimidin-2-yl)methyl}carbamoyl)methyl]-1H-indol-3-yl}propanoic acid]: below 1000 nM; `CC(C)(C)OC(=O)CCc1c[nH]c2ccc(CC(=O)NC(c3ccccc3)c3ccccc3N3CCCCC3)cc12` (stereo not drawn) [Cpd. 2, tert-butyl 3-{5-[({phenyl[2-(piperidin-1-yl)phenyl]methyl}carbamoyl)methyl]-1H-indol-3-yl}propanoate]: 1000 to 10000 nM. On to `Cc1ccc(Cl)c(C(NC(=O)Cc2ccc3[nH]cc(CCC(=O)OC(C)(C)C)c3c2)c2ccccc2)c1` (stereo not drawn) [Cpd. 41, tert-butyl 3-[5-({[(2-chloro-5-methylphenyl)(phenyl)methyl]carbamoyl}methyl)-1H-indol-3-yl]propanoate], for which the IC50 lay in the range of 1000 to 10000 nM.

On to `O=C(O)CCc1c[nH]c2ccc(CC(=O)NC(c3ccccc3)c3ccccc3-n3cccc3)cc12` (stereo not drawn) [compound 107, 3-{5-[({phenyl[2-(1H-pyrrol-1-yl)phenyl]methyl}carbamoyl)methyl]-1H-indol-3-yl}propanoic acid], for which the IC50 is below 1000 nM. `Cc1ccc(C(CC(C)C)NC(=O)Cc2ccc3[nH]cc(CCC(=O)OC(C)(C)C)c3c2)c(OC(C)C)c1` (stereo not drawn) [Cpd. 248, tert-butyl 3-{5-[({3-methyl-1-[4-methyl-2-(propan-2-yloxy)phenyl]butyl}carbamoyl)methyl]-1H-indol-3-yl}propanoate]: the IC50 is 1000 to 10000 nM. Next, `Cc1ccc(C(NC(=O)Cc2ccc3[nH]cc(CCC(=O)O)c3c2)c2ccccc2)c(C)c1` (stereo not drawn) [Cpd. 11, 3-[5-({[(2,4-dimethylphenyl)(phenyl)methyl]carbamoyl}methyl)-1H-indol-3-yl]propanoic acid]: below 1000 nM; `O=C(O)CCc1c[nH]c2ccc(CC(=O)NC(c3ccccc3)c3ccc(F)cc3N3CCCC3)cc12` (stereo not drawn) [compound 93, 3-{5-[({[4-fluoro-2-(pyrrolidin-1-yl)phenyl](phenyl)methyl}carbamoyl)methyl]-1H-indol-3-yl}propanoic acid]: below 1000 nM; `O=C(O)CCc1c[nH]c2ccc(CC(=O)NC(c3ccccc3)c3ccccc3N3CCOCC3)cc12` (stereo not drawn) [compound 196, 3-{5-[({[2-(morpholin-4-yl)phenyl](phenyl)methyl}carbamoyl)methyl]-1H-indol-3-yl}propanoic acid]: 1000 to 10000 nM. For the molecule `Cc1ccc(C(NC(=O)Cc2ccc3[nH]cc(CCC(=O)O)c3c2)c2ccccc2)c2[nH]ccc12` (stereo not drawn) [compound 229, 3-[5-({[(4-methyl-1H-indol-7-yl)(phenyl)methyl]carbamoyl}methyl)-1H-indol-3-yl]propanoic acid], the IC50 lay within 1000 to 10000 nM. As for `Cc1ccc(C(NC(=O)Cc2ccc3[nH]cc(CCC(=O)O)c3c2)c2ccccc2)c(N2CCOCC2)c1` (stereo not drawn) [compound 81, 3-{5-[({[4-methyl-2-(morpholin-4-yl)phenyl](phenyl)methyl}carbamoyl)methyl]-1H-indol-3-yl}propanoic acid], the figure is below 1000 nM; as for `CN(C)Cc1ccccc1C(NC(=O)Cc1ccc2[nH]cc(CCC(=O)O)c2c1)c1ccccc1` (stereo not drawn) [Cpd. 122, 3-(5-{[({2-[(dimethylamino)methyl]phenyl}(phenyl)methyl)carbamoyl]methyl}-1H-indol-3-yl)propanoic acid], below 1000 nM. As for `Cc1cc(C(NC(=O)Cc2ccc3[nH]cc(CCC(=O)OC(C)(C)C)c3c2)c2ccccc2N2CCCCC2)oc1C` (stereo not drawn) [Cpd. 252, tert-butyl 3-[5-({[(4,5-dimethylfuran-2-yl)[2-(piperidin-1-yl)phenyl]methyl]carbamoyl}methyl)-1H-indol-3-yl]propanoate], the IC50 lay in the range of 1000 to 10000 nM. Turning to `O=C(O)Cc1c[nH]c2ccc(NC(=O)NC(c3ccccc3)c3ccccc3N3CCCCC3)cc12` (stereo not drawn) [compound 69, 2-{5-[({phenyl[2-(piperidin-1-yl)phenyl]methyl}carbamoyl)amino]-1H-indol-3-yl}acetic acid], the IC50 was in the range of 1000 to 10000 nM. `O=C(O)Cc1c[nH]c2ccc(CC(=O)NC(c3ccccc3)c3ccccc3N3CCCC3)cc12` (stereo not drawn) [compound 73, 2-{5-[({phenyl[2-(pyrrolidin-1-yl)phenyl]methyl}carbamoyl)methyl]-1H-indol-3-yl}acetic acid] came in with an IC50 of 1000 to 10000 nM. On to `Cc1cccc(C(NC(=O)Cc2ccc3[nH]cc(CCC(=O)OC(C)(C)C)c3c2)c2ccccc2N2CCCCC2)c1` (stereo not drawn) [Cpd. 157, tert-butyl 3-[5-({[(3-methylphenyl)[2-(piperidin-1-yl)phenyl]methyl]carbamoyl}methyl)-1H-indol-3-yl]propanoate], for which the IC50 is below 1000 nM.
